Publication PMC11859184, “Synthesis and Evaluation of ^68Ga- and ^177Lu-Labeled [diF-Pro^14]Bombesin(6−14) Analogs for Detection and Radioligand Therapy of Gastrin-Releasing Peptide Receptor-Expressing Cancer” (Pharmaceuticals, 2025)
Where two headings read alike, the source gives them in different places.

What was measured:
[1] = molecular target: T1, GRPR (Homo sapiens, UniProt P30550); experiment: Fluorometric intracellular calcium release assay using PC-3 cells; format: cell-based; details: 50 nM ligand, n = 4
T1 construct: host or cells: PC-3 cells
T1 sequence (P30550 whole entry): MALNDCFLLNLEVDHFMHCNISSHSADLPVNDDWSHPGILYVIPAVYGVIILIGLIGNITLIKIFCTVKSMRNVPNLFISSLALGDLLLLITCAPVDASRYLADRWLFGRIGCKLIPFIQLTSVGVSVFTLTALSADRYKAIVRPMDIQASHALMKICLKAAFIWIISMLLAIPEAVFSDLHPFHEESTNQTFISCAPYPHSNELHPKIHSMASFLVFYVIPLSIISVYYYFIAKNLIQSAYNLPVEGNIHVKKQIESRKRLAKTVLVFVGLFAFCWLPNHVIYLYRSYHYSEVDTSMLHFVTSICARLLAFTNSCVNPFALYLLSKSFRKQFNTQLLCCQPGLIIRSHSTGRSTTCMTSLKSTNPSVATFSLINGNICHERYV
Description: The agonist/antagonist characteristics of LW02060, Ga-LW02060, Lu-LW02060, LW02080, Ga-LW02080, and Lu-LW02080 were determined following published procedures. The PC-3 cells were obtained from ATCC (via Cedarlane, Burlington, ON, Canada). A 96-well clear bottom black plate was seeded with 5 × 10^4 PC-3 cells in 100 μL growth media per well 24 h before the assay. The loading buffer (100 μL/well) containing a calcium-sensitive dye (FLIPR Calcium 6 assay kit from Molecular Devices, San Jose, CA, USA) was added into the 96-well plate, followed by 1 h incubation at 37 °C. The plate was then transferred into a FlexStation 3 microplate reader (Molecular Devices, San Jose, CA, USA). LW02060 (50 nM), Ga-LW02060 (50 nM), Lu-LW02060 (50 nM), LW02080 (50 nM), Ga-LW02080 (50 nM), Lu-LW02080 (50 nM), [D-Phe^6,Leu-NHEt^13,des-Met^14]Bombesin(6–14) (50 nM, antagonist control), bombesin (50 nM, agonist control), adenosine triphosphate (ATP, 50 nM, positive control), or DPBS (blank control) was added, and the fluorescent signals were measured for 2 min (λEx = 485 nm; λEm = 525 nm; n = 4). The relative fluorescent units (RFU = max − min) were calculated to determine the agonistic/antagonistic characteristics of LW02060, Ga-LW02060, Lu-LW02060, LW02080, Ga-LW02080, and Lu-LW02080, respectively.

[2] = Ex vivo biodistribution of 68Ga-labeled tracers in PC-3 tumor-bearing mice; details: mouse, 1 h pi; for tissue to tissue ratio at 1 h: male, NOD.Cg-Rag1^tm1Mom Il2rg^tm1Wjl/SzJ (NRG), iv, total radioactivity; for tissue uptake at 1 h: intravenous
Description: PET/CT imaging and biodistribution studies were conducted using male NOD.Cg-Rag1^tm1Mom Il2rg^tm1Wjl/SzJ (NRG) mice following previously published procedures. The studies were carried out in compliance with the guidelines established by the Canadian Council on Animal Care and approved by Animal Ethics Committee of the University of British Columbia (protocol number A20-0113, approved on 30 September 2022). The mice were anaesthetized and subcutaneously implanted with 5 × 10^6 PC-3 cells (100 µL; 1:1 PBS/Matrigel) behind the left shoulder. PET/CT imaging and biodistribution studies were performed once the tumors reached a diameter of 5–8 mm, typically after approximately 4 weeks of growth.
For ex vivo biodistribution studies, the mice were injected with the ^68Ga-labeled tracer (2–4 MBq) via a lateral caudal tail vein. For blocking [^68Ga]Ga-LW02060, the mice were co-injected with 100 μg of [D-Phe^6,Leu-NHEt^13,des-Met^14]Bombesin(6–14). For blocking [^68Ga]Ga-LW02080, the mice were co-injected with 100 μg of its nonradioactive standard Ga-LW02080. At 1 h pi, the mice were euthanized by CO2 inhalation. Blood and organs/tissues of interest were collected, weighed, and counted using a gamma counter.

Which intracellular calcium release [1] does the source give for `Nc1ncnc2c1ncn2[C@@H]1O[C@H](COP(=O)(O)OP(=O)(O)OP(=O)(O)O)[C@@H](O)[C@H]1O` [ATP, adenosine triphosphate, reference compound] here?
The intracellular calcium release was 286 ± 9.44 RFU.

Which results are given for `CC(C)C[C@H](NC(=O)[C@H](Cc1cnc[nH]1)N(C)C(=O)CNC(=O)[C@@H](NC(=O)[C@H](C)NC(=O)[C@H](Cc1c[nH]c2ccccc12)NC(=O)[C@H](CCC(N)=O)NC(=O)[C@@H](Cc1ccccc1)NC(=O)CN1CCC(NC(=O)CN2CCN(CC(=O)O)CCN(CC(=O)O)CCN(CC(=O)O)CC2)CC1)C(C)(C)C)C(=O)N1CC(F)(F)C[C@H]1C(N)=O` [[^68Ga]Ga-LW02060, metal not drawn]?
tissue to tissue ratio at 1 h ([2]; tumor/blood, blocked (100 µg blocking agent co-injected), read-out: Tumor/blood uptake ratio): 3.72 ± 0.74; tissue to tissue ratio at 1 h ([2]; tumor/blood, n = 4, read-out: Tumor/blood uptake ratio): 29.1 ± 3.62; tissue to tissue ratio at 1 h ([2]; tumor/bone, blocked (100 µg blocking agent co-injected), read-out: Tumor/bone uptake ratio): 22.3 ± 8.24; tissue to tissue ratio at 1 h ([2]; tumor/bone, n = 4, read-out: Tumor/bone uptake ratio): 179 ± 46.9; tissue to tissue ratio at 1 h ([2]; tumor/kidney, blocked (100 µg blocking agent co-injected), read-out: Tumor/kidney uptake ratio): 0.54 ± 0.03; tissue to tissue ratio at 1 h ([2]; tumor/kidney, n = 4, read-out: Tumor/kidney uptake ratio): 4.86 ± 0.76; tissue to tissue ratio at 1 h ([2]; tumor/muscle, blocked (100 µg blocking agent co-injected), read-out: Tumor/muscle uptake ratio): 17.7 ± 3.85; tissue to tissue ratio at 1 h ([2]; tumor/muscle, n = 4, read-out: Tumor/muscle uptake ratio): 141 ± 19; tissue to tissue ratio at 1 h ([2]; tumor/pancreas, blocked (100 µg blocking agent co-injected), read-out: Tumor/pancreas uptake ratio): 2.87 ± 0.84; tissue to tissue ratio at 1 h ([2]; tumor/pancreas, n = 4, read-out: Tumor/pancreas uptake ratio): 5.52 ± 0.78; tissue uptake at 1 h ([2]; PC-3 tumor, 100 ug, blocked (100 µg blocking agent co-injected), read-out: PC-3 tumor uptake): 6.11 ± 0.42 %ID/g; tissue uptake at 1 h ([2]; PC-3 tumor, n = 4, read-out: PC-3 tumor uptake): 16.8 ± 2.7 %ID/g; tissue uptake at 1 h ([2]; adrenal glands, 100 ug, blocked (100 µg blocking agent co-injected), read-out: Adrenal glands uptake): 0.67 ± 0.03 %ID/g; tissue uptake at 1 h ([2]; adrenal glands, n = 4, read-out: Adrenal glands uptake): 0.66 ± 0.16 %ID/g; tissue uptake at 1 h ([2]; blood, 100 ug, blocked (100 µg blocking agent co-injected), read-out: Blood uptake): 1.71 ± 0.44 %ID/g; tissue uptake at 1 h ([2]; blood, n = 4, read-out: Blood uptake): 0.54 ± 0.03 %ID/g; tissue uptake at 1 h ([2]; bone, 100 ug, blocked (100 µg blocking agent co-injected), read-out: Bone uptake): 0.29 ± 0.07 %ID/g; tissue uptake at 1 h ([2]; bone, n = 4, read-out: Bone uptake): 0.1 ± 0.04 %ID/g; tissue uptake at 1 h ([2]; brain, 100 ug, blocked (100 µg blocking agent co-injected), read-out: Brain uptake): 0.05 ± 0.01 %ID/g; tissue uptake at 1 h ([2]; brain, n = 4, read-out: Brain uptake): 0.02 ± 0.01 %ID/g; tissue uptake at 1 h ([2]; fat, 100 ug, blocked (100 µg blocking agent co-injected), read-out: Fat uptake): 0.27 ± 0.1 %ID/g; tissue uptake at 1 h ([2]; fat, n = 4, read-out: Fat uptake): 0.05 ± 0.02 %ID/g; tissue uptake at 1 h ([2]; heart, 100 ug, blocked (100 µg blocking agent co-injected), read-out: Heart uptake): 0.52 ± 0.14 %ID/g; tissue uptake at 1 h ([2]; heart, n = 4, read-out: Heart uptake): 0.2 ± 0.05 %ID/g; tissue uptake at 1 h ([2]; kidneys, 100 ug, blocked (100 µg blocking agent co-injected), read-out: Kidneys uptake): 11.3 ± 0.97 %ID/g; tissue uptake at 1 h ([2]; kidneys, n = 4, read-out: Kidneys uptake): 3.58 ± 1.14 %ID/g; tissue uptake at 1 h ([2]; large intestine, 100 ug, blocked (100 µg blocking agent co-injected), read-out: Large intestine uptake): 0.54 ± 0.13 %ID/g; tissue uptake at 1 h ([2]; large intestine, n = 4, read-out: Large intestine uptake): 0.61 ± 0.1 %ID/g; tissue uptake at 1 h ([2]; liver, 100 ug, blocked (100 µg blocking agent co-injected), read-out: Liver uptake): 1.11 ± 0.43 %ID/g; tissue uptake at 1 h ([2]; liver, n = 4, read-out: Liver uptake): 0.37 ± 0.08 %ID/g; tissue uptake at 1 h ([2]; lungs, 100 ug, blocked (100 µg blocking agent co-injected), read-out: Lungs uptake): 1.52 ± 0.39 %ID/g; tissue uptake at 1 h ([2]; lungs, n = 4, read-out: Lungs uptake): 0.61 ± 0.15 %ID/g; tissue uptake at 1 h ([2]; muscle, 100 ug, blocked (100 µg blocking agent co-injected), read-out: Muscle uptake): 0.35 ± 0.08 %ID/g; tissue uptake at 1 h ([2]; muscle, n = 4, read-out: Muscle uptake): 0.12 ± 0.03 %ID/g; tissue uptake at 1 h ([2]; pancreas, 100 ug, blocked (100 µg blocking agent co-injected), read-out: Pancreas uptake): 2.25 ± 0.59 %ID/g; tissue uptake at 1 h ([2]; pancreas, n = 4, read-out: Pancreas uptake): 3.12 ± 0.89 %ID/g; tissue uptake at 1 h ([2]; small intestine, 100 ug, blocked (100 µg blocking agent co-injected), read-out: Small intestine uptake): 0.72 ± 0.02 %ID/g; tissue uptake at 1 h ([2]; small intestine, n = 4, read-out: Small intestine uptake): 0.96 ± 0.2 %ID/g; tissue uptake at 1 h ([2]; spleen, 100 ug, blocked (100 µg blocking agent co-injected), read-out: Spleen uptake): 0.53 ± 0.15 %ID/g; tissue uptake at 1 h ([2]; spleen, n = 4, read-out: Spleen uptake): 0.24 ± 0.1 %ID/g; tissue uptake at 1 h ([2]; stomach, 100 ug, blocked (100 µg blocking agent co-injected), read-out: Stomach uptake): 0.38 ± 0.06 %ID/g; tissue uptake at 1 h ([2]; stomach, n = 4, read-out: Stomach uptake): 0.77 ± 0.29 %ID/g; tissue uptake at 1 h ([2]; testes, 100 ug, blocked (100 µg blocking agent co-injected), read-out: Testes uptake): 0.76 ± 0.29 %ID/g; tissue uptake at 1 h ([2]; testes, n = 4, read-out: Testes uptake): 0.2 ± 0.06 %ID/g
